Measurements published in ChEMBL document CHEMBL2390838, “Structure-based identification of ureas as novel nicotinamide phosphoribosyltransferase (Nampt) inhibitors” (J Med Chem, 2013).

What was measured:
Format in all cases: ADME, organism-based
[1] = Oral bioavailability in BALB/c mouse at 5 mg/kg; conditions: in vivo
[2] = Volume of distribution at steady state in BALB/c mouse at 1 mg/kg, iv; design: dose 1 mg/kg, route intravenous; conditions: in vivo, read-out: Vdss
[3] = AUC(infinity) in BALB/c mouse at 5 mg/kg, po; design: time infinity, dose 5 mg/kg, route oral; conditions: plasma
[4] = AUC(infinity) in BALB/c mouse at 1 mg/kg, iv; design: time infinity, dose 1 mg/kg, route intravenous; conditions: plasma
[5] = Cmax in BALB/c mouse at 5 mg/kg, po; design: dose 5 mg/kg, route oral; conditions: in vivo
[6] = Tmax in BALB/c mouse at 5 mg/kg, po; design: dose 5 mg/kg, route oral; conditions: in vivo
[7] = Cmax in BALB/c mouse at 1 mg/kg, iv; design: dose 1 mg/kg, route intravenous; conditions: in vivo
[8] = Tmax in BALB/c mouse at 1 mg/kg, iv; design: dose 1 mg/kg, route intravenous; conditions: in vivo

O=C(NCc1cccnc1)Nc1ccc(S(=O)(=O)N2CC3CCC(C2)O3)cc1
bioavailability [1]: 26%
Vd [2]: 1.1 L/kg
AUC(0-inf) [3]: 1.4 µM·h
AUC(0-inf) [4]: 0.92 µM·h
Cmax [5]: 1100 nM
Tmax [6]: 30 min
Cmax [7]: 2700 nM
Tmax [8]: 4.8 min
